According to patent publication US6914045B2, “Glycopeptide antibiotics” (Wyeth Holdings Corporation, priority 2001, dated 2005):
Values after ≈ are worked out from the molar mass of the structure shown. Values belong to the molecule of their own block, whether it stands above or below them.

Legend:
Experiment in all cases: in vitro antibacterial evaluation, MIC by broth dilution
Format in all cases: cell-based
Enterococcus sp. = settings: broth dilution, 18 hours at 35° C.
Method in brief: (§1)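 Read-out: the lowest concentration at which the test strain fails to grow. Serial dilutions (64-0.06 μg/mL) in Muller-Hinton II […], 5×10^5 CFU/mL inoculum, NCCLS M7-A2 procedure.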

Escherichia coli = settings: 18 hours at 35° C.
Method in brief: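 Inoculum 5×10^5 CFU/mL; concentrations 64 to 0.06 μg/mL; MIC defined as lowest inhibitory level. Conducted by broth dilution under NCCLS guidelines.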

Staphylococcus sp. = settings: broth dilution, 18 hours at 35° C.
Method in brief: as §1

Streptococcus sp. = settings: broth dilution, 18 hours at 35° C.
Method in brief: as §1

[1] = Enterococcus faecalis (ATCC 29212)
[2] = Enterococcus faecalis (GC 4553)
[3] = Enterococcus faecalis (GC 4554)

- MIC Enterococcus avium (GC 4558) (Enterococcus sp.; Enterococcus avium (GC 4558)): >64 µg/mL
- MIC Enterococcus faecalis (ATCC 29212) (Enterococcus sp.; [1]): >64 µg/mL
- MIC Enterococcus faecalis (GC 4553) (Enterococcus sp.; [2]): >64 µg/mL
- MIC Enterococcus faecalis (GC 4554) (Enterococcus sp.; [3]): >64 µg/mL
- MIC Enterococcus faecium (GC 2243) (Enterococcus sp.; Enterococcus faecium (GC 2243)): >64 µg/mL
- MIC Enterococcus faecium (GC 4556) (Enterococcus sp.; Enterococcus faecium (GC 4556)): >64 µg/mL
- MIC Enterococcus faecium (GC 4557) (Enterococcus sp.; Enterococcus faecium (GC 4557)): >64 µg/mL
- MIC Enterococcus faecalis (GC 2242) (Enterococcus sp.): >64 µg/mL
- MIC Enterococcus faecalis (GC 4552) (Enterococcus sp.): >64 µg/mL
- MIC Enterococcus faecalis (ATCC 29212) (Enterococcus sp.; strain ATCC 29212): >64 µg/mL
- MIC Enterococcus faecalis (GC 2242) (Enterococcus sp.; strain GC 2242): >64 µg/mL
- MIC Enterococcus faecium (GC 2243) (Enterococcus sp.; strain GC 2243): >64 µg/mL
- MIC Enterococcus faecalis (GC 4552) (Enterococcus sp.; strain GC 4552): >64 µg/mL
- MIC Enterococcus faecalis (GC 4553) (Enterococcus sp.; strain GC 4553): >64 µg/mL
- MIC Enterococcus faecalis (GC 4554) (Enterococcus sp.; strain GC 4554): >64 µg/mL
- MIC Enterococcus faecium (GC 4556) (Enterococcus sp.; strain GC 4556): >64 µg/mL
- MIC Enterococcus faecium (GC 4557) (Enterococcus sp.; strain GC 4557): >64 µg/mL
- MIC Enterococcus avium (GC 4558) (Enterococcus sp.; strain GC 4558): >64 µg/mL
- MIC Escherichia coli (ATCC 25922) (Escherichia coli; Escherichia coli (ATCC 25922)): >64 µg/mL
- MIC Escherichia coli (GC 4559) (Escherichia coli; Escherichia coli (GC 4559)): >64 µg/mL
- MIC Escherichia coli (GC 4560) (Escherichia coli; Escherichia coli (GC 4560)): >64 µg/mL
- MIC Coagulase Negative Staphylococcus (GC 4547) (Staphylococcus sp.): >64 µg/mL
- MIC Coagulase Negative Staphylococcus (GC 4548) (Staphylococcus sp.): >64 µg/mL
- MIC Coagulase Negative Staphylococcus (GC 4549) (Staphylococcus sp.): >64 µg/mL
- MIC Coagulase Negative Staphylococcus (GC 4551) (Staphylococcus sp.): >64 µg/mL
- MIC Staphylococcus aureus (ATCC 29213) (Staphylococcus sp.): >64 µg/mL
- MIC Staphylococcus aureus (GC 1131) (Staphylococcus sp.): >64 µg/mL
- MIC Staphylococcus aureus (GC 4541) (Staphylococcus sp.): >64 µg/mL
- MIC Staphylococcus aureus (GC 4542) (Staphylococcus sp.): >64 µg/mL
- MIC Staphylococcus aureus (GC 4544) (Staphylococcus sp.): >64 µg/mL
- MIC Staphylococcus aureus (GC 4545) (Staphylococcus sp.): >64 µg/mL
- MIC Staphylococcus aureus-SMITH (GC 4543) (Staphylococcus sp.): >64 µg/mL
- MIC Staphylococcus aureus (ATCC 29213) (Staphylococcus sp.; strain ATCC 29213): >64 µg/mL
- MIC Staphylococcus aureus (GC 1131) (Staphylococcus sp.; strain GC 1131): >64 µg/mL
- MIC Staphylococcus aureus (GC 4541) (Staphylococcus sp.; strain GC 4541): >64 µg/mL
- MIC Staphylococcus aureus (GC 4542) (Staphylococcus sp.; strain GC 4542): >64 µg/mL
- MIC Staphylococcus aureus (GC 4544) (Staphylococcus sp.; strain GC 4544): >64 µg/mL
- MIC Staphylococcus aureus (GC 4545) (Staphylococcus sp.; strain GC 4545): >64 µg/mL
- MIC Streptococcus agalactiae (GC 4564) (Streptococcus sp.): >64 µg/mL
- MIC Streptococcus pyogenes (ID-3187) (Streptococcus sp.): >64 µg/mL
- MIC Streptococcus agalactiae (GC 4564) (Streptococcus sp.; strain GC 4564): >64 µg/mL
- MIC Streptococcus pyogenes (ID-3187) (Streptococcus sp.; strain ID-3187): >64 µg/mL
SMILES: CC(c1ccc(F)cc1)C1NC(=O)CNC(=O)C(CO)NC(=O)C(C(O)C2CNC(=N)N2C2OC(CO)C(O)C(O)C2O)NC(=O)C(C(O)C2CNC(=N)N2)NC(=O)C(Cc2ccc(OC3OC(CO)C(OC4OC(CO)C(O)C(O)C4O)C(O)C3O)cc2)NC1=O (stereo not drawn) [Example 261a, Cyclo[glycyl-4-fluoro-β-methylphenylalanyl-O-(4-O-hexopyranosylhexopyranosyl)tyrosyl-3-(2-iminoimidazolidin-4-yl)seryl-3-(3-hexopyranosyl-2-iminoimidazolidin-4-yl)serylseryl]]
- MIC Staphylococcus haemolyticus (GC 4546) (Staphylococcus sp.): >64 µg/mL

- MIC Enterococcus avium (GC 4558) (Enterococcus sp.; Enterococcus avium (GC 4558)): 8 µg/mL (≈ 5.76 µM)
- MIC Enterococcus faecalis (ATCC 29212) (Enterococcus sp.; [1]): 8 µg/mL (≈ 5.76 µM)
- MIC Enterococcus faecalis (GC 2242) (Enterococcus sp.; Enterococcus faecalis (GC 2242)): 4 µg/mL (≈ 2.88 µM)
- MIC Enterococcus faecalis (GC 2691) (Enterococcus sp.; Enterococcus faecalis (GC 2691)): 8 µg/mL (≈ 5.76 µM)
- MIC Enterococcus faecalis (GC 3059) (Enterococcus sp.; Enterococcus faecalis (GC 3059)): 8 µg/mL (≈ 5.76 µM)
- MIC Enterococcus faecalis (GC 4552) (Enterococcus sp.; Enterococcus faecalis (GC 4552)): 8 µg/mL (≈ 5.76 µM)
- MIC Enterococcus faecalis (GC 4553) (Enterococcus sp.; [2]): 8 µg/mL (≈ 5.76 µM)
- MIC Enterococcus faecalis (GC 4554) (Enterococcus sp.; [3]): 8 µg/mL (≈ 5.76 µM)
- MIC Enterococcus faecalis (GC 6189) (Enterococcus sp.; Enterococcus faecalis (GC 6189)): 4 µg/mL (≈ 2.88 µM)
- MIC Enterococcus faecium (GC 2243) (Enterococcus sp.; Enterococcus faecium (GC 2243)): 8 µg/mL (≈ 5.76 µM)
- MIC Enterococcus faecium (GC 4556) (Enterococcus sp.; Enterococcus faecium (GC 4556)): 8 µg/mL (≈ 5.76 µM)
- MIC Enterococcus faecium (GC 4557) (Enterococcus sp.; Enterococcus faecium (GC 4557)): 2 µg/mL (≈ 1.44 µM)
- MIC Enterococcus faecalis (ATCC 29212) (Enterococcus sp.; strain ATCC 29212): 8 µg/mL (≈ 5.76 µM)
- MIC Enterococcus faecalis (GC 2242) (Enterococcus sp.; strain GC 2242): 4 µg/mL (≈ 2.88 µM)
- MIC Enterococcus faecium (GC 2243) (Enterococcus sp.; strain GC 2243): 8 µg/mL (≈ 5.76 µM)
- MIC Enterococcus faecalis (GC 2691) (Enterococcus sp.; strain GC 2691): 8 µg/mL (≈ 5.76 µM)
- MIC Enterococcus faecalis (GC 3059) (Enterococcus sp.; strain GC 3059): 8 µg/mL (≈ 5.76 µM)
- MIC Enterococcus faecalis (GC 4552) (Enterococcus sp.; strain GC 4552): 8 µg/mL (≈ 5.76 µM)
- MIC Enterococcus faecalis (GC 4553) (Enterococcus sp.; strain GC 4553): 8 µg/mL (≈ 5.76 µM)
- MIC Enterococcus faecalis (GC 4554) (Enterococcus sp.; strain GC 4554): 8 µg/mL (≈ 5.76 µM)
- MIC Enterococcus faecium (GC 4556) (Enterococcus sp.; strain GC 4556): 8 µg/mL (≈ 5.76 µM)
- MIC Enterococcus faecium (GC 4557) (Enterococcus sp.; strain GC 4557): 2 µg/mL (≈ 1.44 µM)
- MIC Enterococcus avium (GC 4558) (Enterococcus sp.; strain GC 4558): 8 µg/mL (≈ 5.76 µM)
- MIC Enterococcus faecalis (GC 6189) (Enterococcus sp.; strain GC 6189): 4 µg/mL (≈ 2.88 µM)
- MIC Escherichia coli (ATCC 25922) (Escherichia coli; strain ATCC 25922): 64 µg/mL (≈ 46.1 µM)
- MIC Escherichia coli (GC 4559) (Escherichia coli; strain GC 4559): 32 µg/mL (≈ 23 µM)
- MIC Escherichia coli (GC 4560) (Escherichia coli; strain GC 4560): <0.5 µg/mL
- MIC Staphylococcus aureus (ATCC 29213) (Staphylococcus sp.): 1 µg/mL (≈ 0.72 µM)
- MIC Staphylococcus aureus (GC 1131) (Staphylococcus sp.): 2 µg/mL (≈ 1.44 µM)
- MIC Staphylococcus aureus (GC 3051) (Staphylococcus sp.): 1 µg/mL (≈ 0.72 µM)
- MIC Staphylococcus aureus (GC 3053) (Staphylococcus sp.): 4 µg/mL (≈ 2.88 µM)
- MIC Staphylococcus aureus (GC 4541) (Staphylococcus sp.): 1 µg/mL (≈ 0.72 µM)
- MIC Staphylococcus aureus (GC 4542) (Staphylococcus sp.): 2 µg/mL (≈ 1.44 µM)
- MIC Staphylococcus aureus (GC 4544) (Staphylococcus sp.): 2 µg/mL (≈ 1.44 µM)
- MIC Staphylococcus aureus (GC 4545) (Staphylococcus sp.): 1 µg/mL (≈ 0.72 µM)
- MIC Staphylococcus aureus (GC 1131) (Staphylococcus sp.; inoculum 5×10^5 CFU/mL, strain GC 1131): 2 µg/mL (≈ 1.44 µM)
- MIC Staphylococcus aureus (ATCC 29213) (Staphylococcus sp.; strain ATCC 29213): 1 µg/mL (≈ 0.72 µM)
- MIC Staphylococcus aureus (GC 3051) (Staphylococcus sp.; strain GC 3051): 1 µg/mL (≈ 0.72 µM)
- MIC Staphylococcus aureus (GC 3053) (Staphylococcus sp.; strain GC 3053): 4 µg/mL (≈ 2.88 µM)
- MIC Staphylococcus aureus (GC 4541) (Staphylococcus sp.; strain GC 4541): 1 µg/mL (≈ 0.72 µM)
- MIC Staphylococcus aureus (GC 4542) (Staphylococcus sp.; strain GC 4542): 2 µg/mL (≈ 1.44 µM)
- MIC Staphylococcus aureus-SMITH (GC 4543) (Staphylococcus sp.; strain GC 4543): 1 µg/mL (≈ 0.72 µM)
- MIC Staphylococcus aureus (GC 4544) (Staphylococcus sp.; strain GC 4544): 2 µg/mL (≈ 1.44 µM)
- MIC Staphylococcus aureus (GC 4545) (Staphylococcus sp.; strain GC 4545): 1 µg/mL (≈ 0.72 µM)
- MIC Coagulase Negative Staphylococcus (GC 4547) (Staphylococcus sp.; strain GC 4547): 1 µg/mL (≈ 0.72 µM)
- MIC Coagulase Negative Staphylococcus (GC 4548) (Staphylococcus sp.; strain GC 4548): <0.5 µg/mL
- MIC Coagulase Negative Staphylococcus (GC 4549) (Staphylococcus sp.; strain GC 4549): 1 µg/mL (≈ 0.72 µM)
- MIC Coagulase Negative Staphylococcus (GC 4551) (Staphylococcus sp.; strain GC 4551): 1 µg/mL (≈ 0.72 µM)
- MIC Coagulase Negative Staphylococcus (GC 6257) (Staphylococcus sp.; strain GC 6257): 1 µg/mL (≈ 0.72 µM)
- MIC Staphylococcus aureus-SMITH (GC 4543) (Staphylococcus sp.; strain SMITH GC 4543): 1 µg/mL (≈ 0.72 µM)
- MIC Streptococcus agalactiae (GC 4564) (Streptococcus sp.; Streptococcus agalactiae (GC 4564)): <0.5 µg/mL
- MIC Streptococcus pneumoniae (ATCC 6301) (Streptococcus sp.; Streptococcus pneumoniae (ATCC 6301)): <0.5 µg/mL
- MIC Streptococcus pneumoniae (GC 1894) (Streptococcus sp.; Streptococcus pneumoniae (GC 1894)): <0.5 µg/mL
- MIC Streptococcus pneumoniae (GC 4565) (Streptococcus sp.; Streptococcus pneumoniae (GC 4565)): 4 µg/mL (≈ 2.88 µM)
- MIC Streptococcus pyogenes (GC 4563) (Streptococcus sp.; Streptococcus pyogenes (GC 4563)): <0.5 µg/mL
- MIC Streptococcus pneumoniae (ATCC 6301) (Streptococcus sp.; strain ATCC 6301): <0.5 µg/mL
- MIC Streptococcus pneumoniae (GC 1894) (Streptococcus sp.; strain GC 1894): <0.5 µg/mL
- MIC Streptococcus pyogenes (GC 4563) (Streptococcus sp.; strain GC 4563): <0.5 µg/mL
- MIC Streptococcus agalactiae (GC 4564) (Streptococcus sp.; strain GC 4564): <0.5 µg/mL
- MIC Streptococcus pneumoniae (GC 4565) (Streptococcus sp.; strain GC 4565): 4 µg/mL (≈ 2.88 µM)
SMILES: CC(c1ccccc1)C1NC(=O)CNC(=O)C(CO)NC(=O)C(C(O)C2CNC(=N)N2C2OC(CO)C(O)C(O)C2O)NC(=O)C(C(O)C2CNC(=N)N2)NC(=O)C(Cc2ccc(OC3OC(CO)C(OC4OC5COC(c6ccsc6)OC5C(O)C4O)C(O)C3O)cc2)NC1=O (centres unmarked) [Example 133]
- MIC Staphylococcus haemolyticus (GC 4546) (Staphylococcus sp.; strain GC 4546): 1 µg/mL (≈ 0.72 µM)
